Test results as given in patent publication US20220257621A1, “CANCER CELL PROLIFERATION SUPPRESSION AGENT AND COMPOSITION FOR SUPPRESSING PROLIFERATION OF CANCER CELLS” (SHOWA DENKO K.K., priority 2019, published 2022).

Legend:
[1] = tested on: normal human epidermal keratinocytes (NHEK); experiment: Effect (1) of suppressing ROS production induced by atmospheric dust (ROS assay kit, fluorescence); format: cell-based
Protocol: The effect of the inositol derivative on suppressing ROS production in normal human epidermal keratinocytes (NHEK, manufactured by KURABO INDUSTRIES LTD.) was measured under the following conditions. The NHEK cells were seeded in a HuMedia KG2 medium manufactured by KURABO INDUSTRIES LTD. at the seeding density of 10000 cells/cm^2, and cultured for 24 hours under the conditions of 37° C. and 5% CO2. Next, an aqueous solution of the inositol derivative or an aqueous solution of myo-inositol was added to the culture medium so that the final concentration of the inositol derivative or myo-inositol was 0.001% by mass, or water (pure water) was added to the culture medium, and culturing was further performed for 24 hours. Thereafter, 0.1 mL of a DMSO solution of atmospheric dust (NIST 1648a) was added per 100 mL of the culture medium so that the final concentration of the atmospheric dust in the culture medium was 500 μg/mL, and culturing was further performed for 48 hours in the same conditions as above. Thereafter, the ROS production amount was measured using a ROS assay kit (manufactured by OZ BIOSCIENCES). […] After washing the cells with PBS again, 100 μL of PBS was added, and the fluorescence intensity at an excitation wavelength of 485 nm/an absorption wavelength of 535 nm was measured with a microplate reader i-Control (manufactured by Tecan Group Ltd.). […]

[2] = tested on: cell line derived from Lewis lung carcinoma (LLC); experiment: Effect (1) of suppressing proliferation of cancer cells accelerated by atmospheric dust (WST-8); format: cell-based; conditions: sample 0.001% by mass 24 h, then atmospheric dust 500 μg/mL 48 h, WST-8 absorbance 450 nm relative to control without dust = 1, dust + water = 2.31
Protocol: The effect of the inositol derivative on suppressing the proliferation of cancer cells in a cell line derived from Lewis lung carcinoma (LLC, JCRB Cell Bank) was measured under the following conditions. The LLC cells were seeded at the seeding density of 50000 cells/cm^2 in a culture medium in which a Ham F 10 medium and an L15 medium (both manufactured by Sigma-Aldrich) were mixed at the ratio of 3:7 (volume ratio), and cultured for 24 hours under the conditions of 37° C. and 5% CO2. Next, an aqueous solution of the inositol derivative or an aqueous solution of myo-inositol was added to the culture medium so that the final concentration of the inositol derivative or myo-inositol was 0.001% by mass, or water (pure water) was added to the culture medium, and culturing was further performed for 24 hours. Thereafter, 0.1 mL of a DMSO solution of atmospheric dust (NIST 1648a) was added per 100 mL of the culture medium so that the final concentration of the atmospheric dust in the culture medium was 500 μg/mL, and culturing was further performed for 48 hours in the same conditions as above. Thereafter, the culture medium was replaced with a medium containing 10% (V/V) of WST-8 of Nacalai Tesque Inc., and after further culturing for 3 hours, the absorbance at the wavelength of 450 nm was measured with a microplate reader i-Control (manufactured by Tecan Group Ltd.). […]

O[C@H]1[C@H](O)[C@@H](O)[C@H](O)[C@@H](O)[C@H]1O [myo-Inositol, myo-inositol]
Effect of suppressing ROS production as compared to the water-added group ([1]; 0.001% by mass, atmospheric dust 500 μg/mL): not recognized | Relative ROS production amount ([1]; sample 0.001% by mass 24 h, then atmospheric dust 500 μg/mL 48 h, fluorescence relative to control without dust = 1, dust + water = 1.46): 1.83 | Relative cell proliferation amount [2]: 2.03
